Test results taken from paper PMC6286779, “HLA-A2-Restricted Epitopes Identified from MTA1 Could Elicit Antigen-Specific Cytotoxic T Lymphocyte Response” (Journal of Immunology Research, 2018).
No end group written: not given here.

Experiments:
HLA-A*0201 molecules = HLA-A*0201 molecules (Homo sapiens, UniProt P04439, D140Y/D185E/D98H/E176V/E277Q/G131W/G231S/I119V/I121R/I166T/I218V/L300P/L318F/N151K/N90K/P208A/P217A/Q86G/Q94H/R138H/R169H/T345S); assay: T2 binding assay; settings: T2 cells 1 × 10^6 cells/ml, peptide 50 μg/ml, 3 μg/ml β2-M, serum-free RPMI 1640, 18 h, 37°C; BB7.2 staining, flow cytometry; FI > 1.5 = high affinity
Method: The binding affinity of these peptides to HLA-A^∗0201 was evaluated according to our previous study. Briefly, T2 cells (1 × 10^6 cells/ml) were incubated with each peptide (50 μg/ml) and 3 μg/ml human β2-microglobulin (β2-M, Merck, Germany) in serum-free RPMI 1640 medium for 18 h at 37°C in a humidified atmosphere of 5% CO2. Then cells were washed twice and incubated with the anti-human HLA-A2 PE-Cyanine7 mAb, BB7.2 (eBioscience, USA) for 0.5 h at 4°C. Finally, cells were collected, washed, and analyzed using flow cytometry (FACSCalibur, Becton Dickinson, USA). The fluorescence index (FI) calculation was performed as follows: FI = [(mean fluorescence intensity (MFI) of the given peptide − background) − (MFI of the PBS control group − background)]/[(MFI of the PBS control group − background)]. The MFI value of cells untreated with peptides and antibodies was employed as background. Peptides with an FI factor of more than 1.5 were classed as high-affinity candidates.

[1] = tested on: SW620 incubated with an anti-human HLA-A2 antibody; assay: LDH cytotoxicity assay, CTLs induced in vitro, HLA-A2 blocked; assay type: cell-based; settings: peptide-induced CTLs, BB7.2 added 30 min before effectors
Method: (§1) CTL induction in vitro was conducted according to the procedures previously described. Briefly, PBMCs from eight HLA-A^∗02^+ healthy donors were isolated using Ficoll-Paque density gradient centrifugation and resuspended in RPMI 1640 medium supplemented with 10% FBS. Then, PBMCs were stimulated three times (once a week) with the indicated peptides (10 μg/ml) or protein MTA1(1–283) (at final concentrations of 0, 1, 10, 30, and 50 μg/ml) for 21 days. Human recombinant cytokine interleukin-2 (IL-2) (50 U/ml) was added on day 3 and 1 day after each stimulation. The cytotoxic assay (lactate dehydrogenase (LDH) assay) and IFN-γ secretion enzyme-linked immunospot (ELISPOT) assay were performed on day 21.
(§2) Cytotoxic activity of induced T cells was tested based on the quantitation of LDH release using the nonradioactive cytotoxicity assay kit (Promega, USA) at the gradient E/T ratio [29, 31]. Target cells which expressed different levels of MTA1 or peptide-pulsed T2 cells were used as target cells. The anti-human HLA-A2 antibody (BB7.2) was added 30 min before adding effector cells to determine the HLA restriction. Target cells (5 × 10^3/well) were cocultured with the effector cells at 37°C for 4 h. The percentage of specific lysis of the target cells was determined using the equation: percentage of specific lysis = [(experimental release − effector spontaneous release − target spontaneous release)/(target maximum release − target spontaneous release)] × 100.

[2] = tested on: MDA-MB-231 (HLA-A2+, MTA1+); assay: LDH cytotoxicity assay, CTLs induced in vitro; assay type: cell-based, human; settings: CTLs induced by peptide 10 μg/ml from donor no. 6; E/T 50 : 1; LDH release, 4 h; n = 3
Method: as §1, §2

HT-29 (HLA-A2−, MTA1+) = assay: LDH cytotoxicity assay, CTLs induced in vitro; assay type: cell-based, human; settings: peptide-induced CTLs, HLA-A2-negative control target
Method: as §1, §2

SW620 (HLA-A2+, MTA1+) = assay: LDH cytotoxicity assay, CTLs induced in vitro; assay type: cell-based, human; settings: CTLs induced by peptide 10 μg/ml from donor no. 6; E/T 50 : 1; LDH release, 4 h; n = 3
Method: as §1, §2

[3] = tested on: Het-1A (HLA-A2+, MTA1low); assay: LDH cytotoxicity assay, CTLs induced in vitro; assay type: cell-based, human; settings: peptide-induced CD8+ T cells, E/T 50 : 1
Method: as §1, §2

MCF-7 (HLA-A2+, MTA1+) = assay: LDH cytotoxicity assay, CTLs induced in vitro; assay type: cell-based, human; settings: peptide-induced CTLs from healthy donors, E/T 50 : 1
Method: as §1, §2

[4] = biological target: T1, peptide/HLA-A*0201 complexes (Homo sapiens, UniProt P04439, D140Y/D185E/D98H/E176V/E277Q/G131W/G231S/I119V/I121R/I166T/I218V/L300P/L318F/N151K/N90K/P208A/P217A/Q86G/Q94H/R138H/R169H/T345S); assay: T2 stabilization (stability) assay; assay type: binding; settings: T2 cells, peptide 50 μg/ml, 18 h, then brefeldin A 10 μg/ml 1 h; read at 0, 2, 4, 6 h, 37°C; flow cytometry
T1 construct: endogenous in cells; host or cells: T2 lymphoblastic cell line (TAP-deficient)
Method: For the stability assay, each of the selected peptides (50 μg/ml) was incubated with T2 cells (1 × 10^6 cells/ml) for 18 h in serum-free RPMI 1640 medium supplemented with 3 μg/ml β2-M at 37°C. Thereafter, cells were washed twice and incubated with brefeldin A (10 μg/ml, eBiosciences, USA) for 1 h. Subsequently, the cells were washed and incubated for 0, 2, 4, and 6 h at 37°C. Cells were washed twice, stained with BB7.2 for 0.5 h at 4°C. Finally, cells were collected, washed, and analyzed by flow cytometry. Dissociation complex 50 (DC50) was defined as time (t) required for the loss of 50% of the HLA-A^∗0201/peptide complexes stabilized at 0 h.

[5] = tested on: PBMCs from HLA-A*02+ healthy donors; assay: IFN-γ ELISPOT of CTLs induced in vitro; assay type: cell-based, human; settings: PBMCs of six donors stimulated with peptide 10 μg/ml three times, day 21; stimulators peptide-pulsed T2 cells (50 μg/ml); 1 × 10^5 effectors; mean, n = 6
Method: as §1
The ELISPOT assay was performed using a commercial kit (Dakewe, China) according to the procedures previously described. Briefly, T2 cells incubated with/without candidate peptide (50 μg/ml) were used as the stimulating cells, effector cells (1 × 10^5) and stimulator cells (peptide-pulsed T2 cells or T2 cells only, 1 × 10^5) were seeded into the 96-well plate precoated with an anti-human (or anti-mouse) IFN-γ antibody. After incubation at 37°C for 18 h, cells were removed, and plates were processed for analysis as instructed. The spot number was determined automatically using a computer-assisted spot analyzer (Dakewe, China).

[6] = biological target: HLA-A*0201 molecule on T2 cells (human (endogenous in T2) | human); assay: flow cytometry on cells; stability assay: T2 cells loaded with peptide (50 μg/ml) and 3 μg/ml β2-M for 18 h at 37°C, brefeldin A (10 μg/ml) 1 h, then 0, 2, 4 and 6 h at 37°C; stained with BB7.2; DC50 = time for the loss of 50% of the HLA-A*0201/peptide complexes stabilized at 0 h
[7] = biological target: HLA-A*0201 molecule on T2 cells (human (endogenous in T2) | human); assay: flow cytometry on cells; T2 binding assay: T2 cells (1 x 10^6 cells/ml) with peptide (50 μg/ml) and 3 μg/ml human β2-M in serum-free RPMI 1640, 18 h, 37°C; surface HLA-A2 stained with BB7.2 PE-Cyanine7; fluorescence index (FI); FI > 1.5 classed as high affinity

Molecule | FI (fluorescence index) (HLA-A*0201 molecules) | DC50 [6] [h] | FI (fluorescence index) [7] | other results
YQADITDLL [Peptide P173] | 0.22 |  |  | 
FLSRQLESL [Peptide P109] | 2.61 |  |  | lysis of SW620 cells incubated with an HLA-A2 blocking antibody [1]: did not lyse; lysis rate of MDA-MB-231 cells [2]: 32.2%; lysis of HT-29 cells (HT-29 (HLA-A2−, MTA1+)): did not lyse; lysis rate of SW620 cells (SW620 (HLA-A2+, MTA1+)): 65.5%; rate of Het-1A cell lysis [3]: 11.9%; rate of MCF-7 cell lysis (MCF-7 (HLA-A2+, MTA1+)): 23.8%; DC50: time required for the loss of 50% of the HLA-A*0201/peptide complexes stabilized at 0 h [4]: >6 h; IFN-γ ELISPOT mean spot intensities [5]: 453
ILIGETIKI [COX-2_321-329, reference compound] | 1.905 |  |  | DC50: time required for the loss of 50% of the HLA-A*0201/peptide complexes stabilized at 0 h [4]: >6 h
HBcAg 18-27 peptide |  | > 6 |  | 
ALADKHATL [Peptide P57] | 1.56 |  |  | lysis of SW620 cells incubated with an HLA-A2 blocking antibody [1]: did not lyse; lysis rate of MDA-MB-231 cells [2]: 30.5%; lysis of HT-29 cells (HT-29 (HLA-A2−, MTA1+)): did not lyse; lysis rate of SW620 cells (SW620 (HLA-A2+, MTA1+)): 45.8%; rate of MCF-7 cell lysis (MCF-7 (HLA-A2+, MTA1+)): 17.6%; DC50: time required for the loss of 50% of the HLA-A*0201/peptide complexes stabilized at 0 h [4]: >6 h; IFN-γ ELISPOT mean spot intensities [5]: 543
FLSRQLESL [MTA1 peptide P109] |  | > 6 | 2.61 | 
TLLNETESL [MTA1 peptide P129] |  | > 6 | 1.28 | 
YQADITDLL [MTA1 peptide P173] |  |  | 0.22 | 
YLIRRIEEL [MTA1 peptide P22] |  | > 2 | 2.08 | 
ALADKHATL [MTA1 peptide P57] |  | > 6 | 1.56 | 
ILIGETIKI (not fully specified) [cyclooxygenase-2 (COX-2) 321-329 peptide] |  | > 6 | 1.91 | 
